In article PMC10503797, “Allosteric modulator potentiates β2AR agonist–promoted bronchoprotection in asthma models” (The Journal of Clinical Investigation, 2023):
Where “and” joins values, the source holds several entries; their conditions need not be identical. Equal values may be shown once. Read-outs that look alike come from different tables or passages of the source.

Key:
guinea pig lung slices = experiment: Methacholine-induced airway constriction in guinea pig lung slices; assay type: cell-based; settings: for EC50: read-out: MCh EC50
Procedure: All curve fits were generated using the software program GraphPad Prism. Data are represented as mean ± SEM obtained from 6 guinea pigs.
(§1) Precision-cut lung slices were prepared as described previously ([61], [62]). A 3% solution of low melting-point agarose (Gerbu Biotechnik GmbH) in ultrapure water was prepared by heating it a microwave until fully dissolved. […] After filling, the lungs were covered with ice for 30 minutes to solidify the agarose for slicing. […] Lung slices were cut at a thickness of 500 μm and washed several times with slicing buffer to remove debris and washout the isoproterenol. Slices were incubated overnight in a 60 mm dish in sterile incubation buffer: MEM composed of lung slice buffer supplemented with 0.5 mM sodium pyruvate, 1 mM glutamine (Gibco), MEM-amino acids mixture (1:50), MEM-vitamins mixture (1:100; Gibco), and penicillin-streptomycin (1:100; Gibco), pH = 7.2, at 37°C in a CO2- and humidity-controlled atmosphere.
(§2) After washing the slices in medium, individual guinea pig lung slices were mechanically maintained with a Teflon ring with an inner diameter of 7 mm and covered with 1 mL of incubation buffer. […] Image acquisition software (NIS-Elements, Nikon) was used to quantify airway luminal area. Images of the airways were acquired every 2 seconds during the whole course of the experiment, starting 2 minutes before the addition of any agent to allow for baseline measurements of the airway caliber. For each methacholine or ovalbumin concentration, the maximal airway constriction was expressed as percentage of the initial (baseline) airway luminal area and plotted against that concentration.

[1] = test system: lung slices obtained from ovalbumin-sensitized guinea pigs; experiment: Ovalbumin-induced airway constriction in lung slices from ovalbumin-sensitized guinea pigs; assay type: cell-based, guinea pig; design: key to OVA-induced airway constriction response (Figure 6): max constriction as % of initial (baseline) airway luminal area; settings: 0.1 µM Fenoterol + 25 µM Cmpd-6, Exp1-5
Excerpt: All curve fits were generated using the software program GraphPad Prism. Data are represented as mean ± SEM of 4–5 guinea pigs (see Table 2 for statistical analyses).
Outbred, male, specified pathogen-free Dunkin Hartley guinea pigs (Charles River Laboratory) weighing 200 to 400 g were used. The animals were housed in pairs under a 12-hour light/dark cycle in a temperature- and humidity-controlled room with food and tap water ad libitum. For studies in the guinea pig model of allergic asthma, animals were actively IgE-sensitized to ovalbumin by injecting a suspension containing 100 μg/mL ovalbumin and 100 mg/mL Al(OH)3 in saline. Each animal was injected with 1.0 mL of suspension: 0.5 mL was injected i.p. and 0.5 mL was divided over 7 s.c. sites close to lymph nodes in the neck, paws, and lumbar regions ([24]). Animals were euthanized at least 4 weeks after sensitization.
as §1, §2

human lung slices = experiment: Methacholine-induced airway constriction in human lung slices; assay type: cell-based; design: key to MCh-induced airway constriction response (Figure 7): % of initial airway luminal area; settings: for MCh-induced airway constriction response (Figure 7): 1 µM Fenoterol + 25 µM Cmpd-6, donor 1-4
Excerpt: All curve fits were generated using the software program GraphPad Prism. Data are represented as mean ± SEM of 4 human donors (see Table 3 for statistical analyses).
Precision-cut human lung slices were purchased from AnaBios and stored in a liquid nitrogen tank. Lung tissue was obtained postmortem and consent for research was obtained by AnaBios for all donors. Characteristics of the donors of the lung tissue are shown in Supplemental Table 2. Slices were rapidly thawed following instructions from AnaBios.
After washing, individual human lung slices were mechanically maintained with a Teflon ring with an inner diameter of 7 mm and covered with 1 mL of incubation buffer. […] Image acquisition software (NIS-Elements, Nikon) was used to quantify airway luminal area. […] Airway constriction in response to each methacholine concentration was expressed as percentage of the initial airway luminal area.

guinea pig β2AR = guinea pig β2AR (Cavia porcellus, UniProt Q8K4Z4); experiment: 125I-CYP radioligand competition binding, guinea pig β2AR; settings: Cmpd-6 [1 uM]
guinea pig β2AR, sequence (Q8K4Z4 whole entry): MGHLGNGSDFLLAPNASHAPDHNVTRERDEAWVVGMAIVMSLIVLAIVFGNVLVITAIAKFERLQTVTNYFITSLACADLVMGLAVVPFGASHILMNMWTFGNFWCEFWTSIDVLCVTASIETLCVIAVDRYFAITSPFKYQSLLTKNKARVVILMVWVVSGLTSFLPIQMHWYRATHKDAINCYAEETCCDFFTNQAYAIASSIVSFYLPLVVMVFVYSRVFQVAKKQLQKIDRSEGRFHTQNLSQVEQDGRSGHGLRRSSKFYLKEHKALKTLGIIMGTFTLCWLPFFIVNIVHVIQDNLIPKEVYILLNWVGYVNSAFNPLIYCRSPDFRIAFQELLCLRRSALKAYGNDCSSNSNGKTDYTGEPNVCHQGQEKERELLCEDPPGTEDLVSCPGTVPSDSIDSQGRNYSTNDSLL

EC50 (guinea pig lung slices; 1 μM Fenoterol + 25 μM Cmpd-6): 0.59 ± 0.09 µM
EC50 (guinea pig lung slices; 10 μM Fenoterol + 25 μM Cmpd-6): 0.98 ± 0.12 µM
EC50 (guinea pig lung slices; 25 μM Cmpd-6 alone): 0.28 ± 0.05 µM
Compound: COc1ccc(Sc2ccc(S(=O)(=O)N(C)C(C)C)cc2C(=O)N[C@H](CC(N)=O)Cc2ccc(C(C)(C)C)cc2)cc1 [Cmpd-6]
MCh Emax (guinea pig lung slices; 1 μM Fenoterol + 25 μM Cmpd-6): 112.3 ± 9.5%
MCh Emax (guinea pig lung slices; 10 μM Fenoterol + 25 μM Cmpd-6): 100.9 ± 3.2%
Augmentation of airway smooth muscle responsiveness to fenoterol (guinea pig lung slices; 25 μM Cmpd-6): 10 fold
MCh Emax (guinea pig lung slices; 25 μM Cmpd-6 alone): 100.0 ± 2.0%
OVA-induced airway constriction response (Figure 6) ([1]; [OVA] 0.001 ng/ml): 101.6 and 100.0 and 98.0 and 99.2 and 107.5
OVA-induced airway constriction response (Figure 6) ([1]; [OVA] 0.01 ng/ml): 101.3 and 100.0 and 95.9 and 96.7 and 107.5
OVA-induced airway constriction response (Figure 6) ([1]; [OVA] 0.1 ng/ml): 101.6 and 100.0 and 97.5 and 97.8 and 107.5
OVA-induced airway constriction response (Figure 6) ([1]; [OVA] 1 ng/ml): 101.6 and 99.9 and 95.4 and 99.0 and 107.5
OVA-induced airway constriction response (Figure 6) ([1]; [OVA] 10 ng/ml): 101.3 and 109.6 and 95.4 and 102.0 and 106.4
OVA-induced airway constriction response (Figure 6) ([1]; [OVA] 100 ng/ml): 102.3 and 105.5 and 95.6 and 99.3 and 107.0
OVA-induced airway constriction response (Figure 6) ([1]; [OVA] 1000 ng/ml): 102.2 and 108.2 and 105.1 and 101.8
OVA-induced airway constriction response (Figure 6) ([1]; [OVA] 10000 ng/ml): 101.8 and 96.8 and 105.1 and 98.0 and 79.6
OVA-induced airway constriction response (Figure 6) ([1]; [OVA] 100000 ng/ml): 101.6 and 81.6 and 100.1 and 89.5 and 64.4
OVA-induced airway constriction response (Figure 6) ([1]; [OVA] 1000000 ng/ml): 101.0 and 77.3 and 94.7 and 90.3 and 74.1
MCh Emax (human lung slices; 1 μM Fenoterol + 25 μM Cmpd-6): 26.5 ± 4.4^A %
MCh pD2 (human lung slices; 1 μM Fenoterol + 25 μM Cmpd-6): 5.52 ± 0.24^B –log M
MCh-induced airway constriction response (Figure 7) (human lung slices; -Log [MCh] 3.5): 81.9 and 70.9 and 77.9 and 77.7
MCh-induced airway constriction response (Figure 7) (human lung slices; -Log [MCh] 4): 85.4 and 70.2 and 85.0 and 81
MCh-induced airway constriction response (Figure 7) (human lung slices; -Log [MCh] 4.5): 87.4 and 88.5 and 81.1 and 82.0
MCh-induced airway constriction response (Figure 7) (human lung slices; -Log [MCh] 5): 88.4 and 90.1 and 84.2 and 85.0
MCh-induced airway constriction response (Figure 7) (human lung slices; -Log [MCh] 5.5): 89.6 and 91.5 and 87.5 and 90.7
MCh-induced airway constriction response (Figure 7) (human lung slices; -Log [MCh] 6): 90.7 and 94.3 and 90.0 and 93.1
MCh-induced airway constriction response (Figure 7) (human lung slices; -Log [MCh] 6.5): 93.1 and 102.4 and 95.5 and 94.0
MCh-induced airway constriction response (Figure 7) (human lung slices; -Log [MCh] 7): 93.8 and 102.2 and 98.0 and 97.4
MCh-induced airway constriction response (Figure 7) (human lung slices; -Log [MCh] 7.5): 95.1 and 104.8 and 98.8 and 98.9
MCh-induced airway constriction response (Figure 7) (human lung slices; -Log [MCh] 8): 99.2 and 103.1 and 100.8 and 101.6
MCh-induced airway constriction response (Figure 7) (human lung slices; -Log [MCh] 8.5): 96.5 and 109.1 and 101.7 and 103.0
MCh-induced airway constriction response (Figure 7) (human lung slices; -Log [MCh] 9): 95.6 and 107.7 and 98.0 and 98.3
Enhancement of the β2-agonist responsiveness (human lung slices; 25 μM Cmpd-6 + 1 μM fenoterol vs 10 μM fenoterol): 10 fold
125I-CYP binding, ISO competition curve (Figure 4B) (guinea pig β2AR; Log [ISO] (M) -4.49485): 1.389 and 1.151 and 1.419 and 1.486 and 1.375
125I-CYP binding, ISO competition curve (Figure 4B) (guinea pig β2AR; Log [ISO] (M) -5.69897): 11.9867 and 9.239 and 16.2618 and 13.198 and 14.4523
125I-CYP binding, ISO competition curve (Figure 4B) (guinea pig β2AR; Log [ISO] (M) -6.90309): 60.3981 and 44.4601 and 52.8751 and 61.5704 and 63.6634
125I-CYP binding, ISO competition curve (Figure 4B) (guinea pig β2AR; Log [ISO] (M) -7.50515): 85.4929 and 72.4739 and 91.4188 and 87.166 and 89.8825
125I-CYP binding, ISO competition curve (Figure 4B) (guinea pig β2AR; Log [ISO] (M) -8.70927): 98.0858 and 100.299 and 96.4593 and 97.8108 and 99.3392
125I-CYP binding, ISO competition curve (Figure 4B) (guinea pig β2AR; Log [ISO] (M) -9.31133): 102.219 and 97.3579 and 98.2032 and 100.895 and 101.354
125I-CYP binding, ISO competition curve (Figure 4B) (guinea pig β2AR; Log [ISO] (M) -9.91339): 101.18 and 98.3743 and 98.3138 and 101.016 and 101.111
125I-CYP binding, ISO competition curve (Figure 4B) (guinea pig β2AR; Log [ISO] (M) -11 (DMSO)): 99.0003 and 102.579 and 98.6421 and 100.222 and 97.6049
